Experimental data: US20240206463A1, “AGROCHEMICAL COMPOSITION” (NOURYON CHEMICALS INTERNATIONAL B.V., priority 2021, published 2024)
Where two headings read alike, the source gives them in different places.

What was measured:
[1] = Diluents lowering the melting point of pelargonic acid: visual appearance (crystal/clear) of pelargonic acid/diluent blends at low temperature
[2] = Wetting/spreading of a drop on a hydrophobic polystyrene dish; assay type: physicochemical; settings: in water (0.5-3.7%)
Source text: It was unexpectedly discovered that there is a synergy in wetting/spreading between C9 acid and phosphate ester exemplified by PE2 (C1216-30 phosphate ester). […] That is, a drop of the solution balls up with a large contact angle on the dish.

[3] = pelargonic acid 30 wt % + diluent 70 wt %
[4] = pelargonic acid 50 wt % + diluent 50 wt %
[5] = pelargonic acid 60 wt % + diluent 40 wt %
[6] = pelargonic acid 70 wt % + diluent 30 wt %
[7] = pelargonic acid 80 wt % + diluent 20 wt %
[8] = pelargonic acid 65 wt % + diluent 35 wt %
[9] = pelargonic acid 75 wt % + diluent 25 wt %

Row | SMILES | diluent amount required to lower the melting point of pelargonic acid to 0° C. (or lower) [1] [%] | appearance at 0° C. [1, 3] | appearance at −20° C. [1, 3] | appearance at 0° C. [1, 4] | appearance at −20° C. [1, 4] | appearance at 0° C. [1, 5] | appearance at −20° C. [1, 5] | appearance at 0° C. [1, 6] | appearance at −20° C. [1, 6] | appearance at 0° C. [1, 7] | appearance at −20° C. [1, 7] | appearance at 0° C. [1, 8] | appearance at −20° C. [1, 8] | appearance at 0° C. [1, 9] | appearance at −20° C. [1, 9] | ability to wet a hydrophobic polystyrene dish [2] | appearance at 0° C. [1] | appearance at −20° C. [1]
1 | CCCCOC(C)=O [Butyl Acetate] | – | Clear | Clear | Clear | Crystal | – | – | Clear | Crystal | – | – | Clear | Crystal | Clear | Crystal | – | – | –
2 | CCCCCCCCC(=O)O [C9 acid, pelargonic acid] | – | – | – | – | – | – | – | – | – | – | – | – | – | – | – | not able to wet | – | –
3 | CCCCCCC(=O)O [Heptanoic acid] | 25 | – | – | – | – | – | – | – | – | – | – | – | – | Clear | Crystal | – | – | –
4 | COC(=O)c1ccccc1 [Methyl benzoate] | – | – | – | – | – | – | – | – | – | – | – | – | – | – | – | – | Clear | Crystal
5 | COC(=O)c1ccccc1O [Methyl salicylate] | 35 | – | – | Clear | Crystal | – | – | Crystal | Crystal | – | – | Clear | Crystal | Crystal | Crystal | – | – | –
6 | CCOP(=O)(OCC)OCC [triethylphosphate] | – | – | – | – | – | – | – | – | – | – | – | – | – | – | – | – | Clear | –

Second part, led by results:

Row | diluent amount required to lower the melting point of pelargonic acid to 0° C. (or lower) [1] [%] | appearance at 0° C. [1, 3] | appearance at −20° C. [1, 3] | appearance at 0° C. [1, 4] | appearance at −20° C. [1, 4] | appearance at 0° C. [1, 5] | appearance at −20° C. [1, 5] | appearance at 0° C. [1, 6] | appearance at −20° C. [1, 6] | appearance at 0° C. [1, 7] | appearance at −20° C. [1, 7] | appearance at 0° C. [1, 8] | appearance at −20° C. [1, 8] | appearance at 0° C. [1, 9] | appearance at −20° C. [1, 9] | ability to wet a hydrophobic polystyrene dish [2] | SMILES | appearance at 0° C. [1] | appearance at −20° C. [1]
7 | 30 | Clear | Clear | Clear | Crystal | Clear | Crystal | Clear | Crystal | Crystal | Crystal | – | – | – | – | – | CCCCC(CC)C(=O)O (stereo not drawn) [2-EH acid, 2-ethyhexanoic acid] | – | –
8 | 30 | Clear | Clear | Clear | Crystal | Clear | Crystal | Clear | Crystal | Crystal | Crystal | – | – | – | – | – | CCCCC(CC)CO (stereo not drawn) [2-EH alcohol, 2-ethylhexanol] | – | –
9 | 30 | Clear | Crystal | Clear | Crystal | – | – | Crystal | Crystal | – | – | Crystal | Crystal | Crystal | Crystal | – | CCCCCCCCOC(=O)C(C)O (stereo not drawn) [Octyl lactate] | – | –
10 | 30 | – | – | – | – | – | – | Clear | Crystal | – | – | – | – | – | – | – | CCCCC(=O)O [Valeric C5 acid, valeric acid] | – | –
11 | – | Clear | Clear | Clear | Crystal | – | – | Clear | Crystal | – | – | Clear | Crystal | Crystal | Crystal | – | C=C(C)[C@H]1CC=C(C)CC1 [d-limonene] | – | –
